*1 amine or outer side, *2 acyl side, *3 side chain or, on linkers, in order; H or OH if unused. Where a SMILES comes first, the peptide text is derived from it. Bridges are numbered along the chain shown (N, C = ends). The star is where a group is joined. C20 diacid = O=C(O)CCCCCCCCCCCCCCCCCCC(=O)*; γGlu = O=C(O)[C@H](CCC(=O)[*:2])N[*:1]
Assays:
[1] = Assessment of physical stability (Thioflavin T fibrillation); type: physicochemical; design: key: FND = fibrillation not detected; FD = fibrillation detected; conditions: 1 mg/ml, 40° C., ThT
Description: Solutions containing (i) 1 mg/ml of test peptide, 40 μM ThT and 50 mM phosphate (Ph) buffer (pH 7.0), (ii) 1 mg/ml of test peptide, 40 μM ThT and 50 mM histidine (His) buffer (pH 7.0), and (iii) 1 mg/ml of test peptide, 40 μM ThT and 50 mM acetate (Ac) buffer (pH 4.0), were loaded in a 96-well black fluorescence plate (clear bottom) in triplicate. Data were collected at fixed intervals of 10 min, each preceded by 300 s of automixing (agitation), over a period of 96 hours at 40° C. Physical stability, expressed as lag-time of fibril formation (in hours), was defined as the intersection between two linear regressions representing the initial stable phase and the growth phase.

[2] = Assessment of chemical stability (RP-HPLC normalized purity); type: physicochemical
Description: Samples of each test peptide were dissolved in MilliQ™ water, and the pH of the solution was adjusted to pH 4, pH 6, pH 7.5 or pH 9, respectively, using either HCl or NaOH. The final peptide concentration was 0.2 mg/ml. Samples were placed in glass vials and incubated at 40° C. The samples were analyzed by RP-HPLC on a C8 column with gradient elution using an ammonium formate/water eluent system, or on a C18 column with gradient elution using a trifluoroacetic acid/water eluent system. The area-percentage (area-%) of the main peak after incubation time T=t (relative to time T=0) was determined by UV spectroscopy at 220 nm.
The purity was first determined as follows:
Purity(area-%)=(area of main peak/total area of all peaks)×100.
The purity was then normalized between time points by setting purity at time 0 (T=0) to 100 for each pH value for a given peptide, as follows:
Normalised area-% at time t (T=t)=[area-%(T=t)/area-%(T=0)]×100.
The normalized purity values in Table 1 were determined after 7 days of incubation.
The chemical stability assessment described in Example 6 was repeated for four pairs of compounds, each differing only by the presence or absence of an Asn-Asn (N—N) doublet at positions 21 and 22.

Fibrillation pH 4.0 (Ac) ([1]; 50 mM acetate buffer pH 4.0, 96 hours): FND
Fibrillation pH 7.0 (His) ([1]; 50 mM histidine buffer pH 7.0, 96 hours): FD
Fibrillation pH 7.0 (Phos.) ([1]; 50 mM phosphate buffer pH 7.0, 96 hours): FD
Normalized purity after 7 days, 40° C., pH 4 ([2]; pH 4, 0.2 mg/ml, 7 days, 40° C., Table 1): A (A = >90%)
Normalized purity pH 4 (Table 5) ([2]; pH 4, repeat of Example 6 for pairs with/without Asn-Asn at 21-22): A (A = >90%)
Normalized purity after 7 days, 40° C., pH 6 ([2]; pH 6, 0.2 mg/ml, 7 days, 40° C., Table 1): A (A = >90%)
Normalized purity pH 6 (Table 5) ([2]; pH 6, repeat of Example 6 for pairs with/without Asn-Asn at 21-22): A (A = >90%)
Normalized purity after 7 days, 40° C., pH 7.5 ([2]; pH 7.5, 0.2 mg/ml, 7 days, 40° C., Table 1): B (B = 70-90%)
Normalized purity pH 7.5 (Table 5) ([2]; pH 7.5, repeat of Example 6 for pairs with/without Asn-Asn at 21-22): B (B = 70-90%)
Normalized purity after 7 days, 40° C., pH 9 ([2]; pH 9, 0.2 mg/ml, 7 days, 40° C., Table 1): B (B = 70-90%)
Normalized purity pH 9 (Table 5) ([2]; pH 9, repeat of Example 6 for pairs with/without Asn-Asn at 21-22): B (B = 70-90%)
SMILES: CC[C@H](C)[C@H](NC(=O)[C@@H]1CCCN1C(=O)CNC(=O)[C@H](Cc1ccccc1)NC(=O)[C@H](CC(N)=O)NC(=O)[C@H](CC(N)=O)NC(=O)[C@H](CO)NC(=O)[C@H](CO)NC(=O)[C@H](Cc1c[nH]cn1)NC(=O)[C@H](Cc1c[nH]cn1)NC(=O)[C@H](CC(C)C)NC(=O)[C@H](Cc1ccccc1)NC(=O)[C@H](CCC(=O)O)NC(=O)[C@H](C)NC(=O)[C@H](CC(C)C)NC(=O)[C@H](CCCNC(=N)N)NC(=O)[C@H](CCC(N)=O)NC(=O)[C@@H](NC(=O)[C@H](C)NC(=O)[C@@H]1CSSC[C@H](NC(=O)[C@H](CCCNC(=N)N)NC(=O)CC[C@H](NC(=O)CCCCCCCCCCCCCCCCCCC(=O)O)C(=O)O)C(=O)N[C@@H](CC(N)=O)C(=O)N[C@@H]([C@@H](C)O)C(=O)N[C@@H](C)C(=O)N[C@@H]([C@@H](C)O)C(=O)N1)[C@@H](C)O)C(=O)N[C@@H](CC(C)C)C(=O)N1CCC[C@H]1C(=O)N1CCC[C@H]1C(=O)N[C@H](C(=O)N[C@@H](CC(N)=O)C(=O)N[C@H](C(=O)NCC(=O)N[C@@H](CO)C(=O)N[C@@H](CC(N)=O)C(=O)N[C@H](C(=O)N1CCC[C@H]1C(N)=O)[C@@H](C)O)C(C)C)[C@@H](C)O [NN96, N-α-[(S)-4-carboxy-4-(19-carboxynonadecanoylamino)butyryl]-[Arg1, Glu14, His17, Pro37]-pramlintide-NH2, reference compound] ({C20 diacid-γGlu}-RCNTATCATQRLAEFLHHSSNNFGPILPPTNVGSNTP-NH2; disulfide 2-7)

Source: patent US20210115104A1, “AMYLIN ANALOGUES” (Zealand Pharma A/S, priority 2015, published 2021)
